The assay deals with oxoeicosanoid receptor 1 (OXER1) (Homo sapiens, UniProt Q8TDS5). Kind of assay: inhibition of forskolin-stimulated cAMP in CHO-K1 cells stably expressing human OXER1 (agonist); also displaces [3H]testosterone from DU-145 membranes. It is filed as cell-based.

Each structure is given as a SMILES string.

oxoeicosanoid receptor 1 (OXER1), sequence (Q8TDS5 whole entry): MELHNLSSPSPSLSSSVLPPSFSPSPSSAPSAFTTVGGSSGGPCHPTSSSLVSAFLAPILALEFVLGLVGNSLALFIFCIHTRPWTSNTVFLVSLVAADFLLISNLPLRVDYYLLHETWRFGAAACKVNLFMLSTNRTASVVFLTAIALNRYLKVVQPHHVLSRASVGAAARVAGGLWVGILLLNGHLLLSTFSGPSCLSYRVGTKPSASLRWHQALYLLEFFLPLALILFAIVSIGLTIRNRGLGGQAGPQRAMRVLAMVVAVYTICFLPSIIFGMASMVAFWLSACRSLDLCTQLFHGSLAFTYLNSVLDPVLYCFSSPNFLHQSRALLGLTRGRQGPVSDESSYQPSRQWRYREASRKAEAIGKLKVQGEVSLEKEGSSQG

Usually IC50 stands for the concentration needed to halve the response being measured. The low end stands for inhibition by little substance, the high end for a need for much substance. `CCCCC/C=C\C/C=C\C/C=C\C=C\C(=O)CCCC(=O)O` [5-oxoETE, 5-oxo-6E,8Z,11Z,14Z-eicosatetraenoic acid]: the IC50 was around 2 nM.

(Values after publication PMC5349529, “Antagonizing effects of membrane-acting androgens on the eicosanoid receptor OXER1 in prostate cancer” (Scientific Reports, 2017).)
